Legend:
Format in all cases: cell-based
hERG = hERG (Homo sapiens (Human), UniProt Q12809); test: hERG Manual Patch Clamp Assay; settings: for inhibition at 1 µM / inhibition at 3 µM / inhibition at 10 µM: human, HEK 293 cells stably expressing hERG channels; for inhibition at 1 µM: pH 7.4, 1 μM, read-out: hERG EP IC50 (% Inhibition at 1 μM); for inhibition at 3 µM: pH 7.4, 3 uM, read-out: hERG EP % Inhibition at 3 uM; for inhibition at 10 µM: pH 7.4, 10 uM, read-out: hERG EP % Inhibition at 10 uM
Chain of hERG (Q12809 whole entry): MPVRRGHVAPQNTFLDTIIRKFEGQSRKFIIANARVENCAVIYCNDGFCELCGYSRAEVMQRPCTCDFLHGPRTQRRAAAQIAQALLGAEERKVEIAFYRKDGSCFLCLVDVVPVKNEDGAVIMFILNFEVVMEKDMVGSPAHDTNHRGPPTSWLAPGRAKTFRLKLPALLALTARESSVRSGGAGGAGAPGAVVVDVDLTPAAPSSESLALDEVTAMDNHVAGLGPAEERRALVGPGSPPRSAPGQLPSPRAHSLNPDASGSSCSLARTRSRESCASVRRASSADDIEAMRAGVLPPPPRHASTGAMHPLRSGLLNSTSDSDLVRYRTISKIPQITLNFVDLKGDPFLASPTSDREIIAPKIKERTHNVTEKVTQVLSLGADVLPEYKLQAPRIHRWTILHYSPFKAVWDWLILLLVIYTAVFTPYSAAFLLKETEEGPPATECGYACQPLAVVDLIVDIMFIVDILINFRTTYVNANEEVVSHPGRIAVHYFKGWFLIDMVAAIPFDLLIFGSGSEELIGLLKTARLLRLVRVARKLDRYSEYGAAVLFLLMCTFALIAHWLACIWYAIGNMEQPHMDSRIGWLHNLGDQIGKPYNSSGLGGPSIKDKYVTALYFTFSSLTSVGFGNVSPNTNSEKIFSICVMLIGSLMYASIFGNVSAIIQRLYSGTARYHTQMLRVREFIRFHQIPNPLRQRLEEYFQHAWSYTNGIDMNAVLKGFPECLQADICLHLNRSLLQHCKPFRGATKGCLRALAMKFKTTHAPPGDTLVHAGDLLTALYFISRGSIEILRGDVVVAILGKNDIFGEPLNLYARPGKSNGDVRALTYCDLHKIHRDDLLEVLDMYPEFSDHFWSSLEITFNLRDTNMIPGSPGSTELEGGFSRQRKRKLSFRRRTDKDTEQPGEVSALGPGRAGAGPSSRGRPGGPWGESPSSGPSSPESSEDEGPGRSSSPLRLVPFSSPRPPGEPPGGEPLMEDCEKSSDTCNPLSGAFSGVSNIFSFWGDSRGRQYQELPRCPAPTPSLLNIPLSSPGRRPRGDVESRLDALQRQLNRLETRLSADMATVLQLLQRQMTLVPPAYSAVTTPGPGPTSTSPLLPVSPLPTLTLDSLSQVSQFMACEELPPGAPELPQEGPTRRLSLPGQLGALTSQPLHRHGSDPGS
Experimental: hERG Manual Patch Clamp Assay
hERG electrophysiology assay: The experimental compounds were assessed for hERG activity on HEK 293 cells stably expressing hERG channels using patch clamp technique. Coverslips plated with hERG expressing cells were placed in the experimental chamber and were perfused with a solution composed of (in mM): 140 NaCl, 4 KCl, 1.8 CaCl2, 1 MgCl2, 10 Glucose, 10 HEPES (pH 7.4, NaOH) at room temperature. Borosilicate patch pipettes had tip resistances of 2-4 Mohms when filled with an internal solution containing: 130 KCl, 1 MgCl2, 1 CaCl2, 10 EGTA, 10 HEPES, 5 ATP-K2 (pH 7.2, KOH). The cells were clamped at −80 mV in whole cell configuration using an Axopatch 200B (Axon instruments, Union City, Calif.) patch clamp amplifier controlled by pClamp (Axon instruments) software. Upon formation of a gigaseal, the following voltage protocol was repeatedly (0.05 Hz) applied to record tail currents: depolarization step from −80 mV to +20 mV for 2 seconds followed by a hyperpolarization step to −65 mV (3 seconds) to elicit tail currents. Compounds were applied after stabilization of tail current. First, tail currents were recorded in presence of extracellular solution alone (control) and subsequently, in extracellular solution containing increasing compound concentrations. Each compound concentration was applied for 2-5 minutes. The percentage inhibition at each concentration was calculated as reduction in peak tail current with respect to the peak tail current recorded in the presence of control solution. Data analysis was performed in a custom made template. The percent inhibitions at different concentrations were plotted to obtain a concentration response curve, which was subsequently fitted with a four parameter equation to calculate hERG IC50 value.
A lower hERG % Inhibition value indicates less inhibition of the hERG current

hROMK (human Kir1.1) = hROMK (human Kir1.1) (Homo sapiens (Human), UniProt P48048); test: Thallium Flux Assay; settings: CHO T-Rex hROMK stable cell line, 10-point concentration response; read-out: hROMK Th+ Flux IC50
Chain of hROMK (human Kir1.1) (P48048 whole entry): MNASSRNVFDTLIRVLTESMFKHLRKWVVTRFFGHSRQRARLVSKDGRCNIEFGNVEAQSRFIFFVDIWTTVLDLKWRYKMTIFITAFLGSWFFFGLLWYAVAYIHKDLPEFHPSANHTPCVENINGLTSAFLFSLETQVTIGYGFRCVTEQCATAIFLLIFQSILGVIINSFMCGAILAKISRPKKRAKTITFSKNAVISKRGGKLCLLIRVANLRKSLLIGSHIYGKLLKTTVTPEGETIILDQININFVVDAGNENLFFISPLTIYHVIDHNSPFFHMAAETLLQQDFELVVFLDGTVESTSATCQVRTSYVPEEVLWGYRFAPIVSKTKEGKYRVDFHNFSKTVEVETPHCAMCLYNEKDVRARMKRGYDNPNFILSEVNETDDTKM
Outline: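 CHO T-Rex cells, doxycycline-induced (0.5 μg/ml) one day before, FluxOR dye-loaded; compounds 30 min, then Tl+ stimulus (final 3 mM Tl2SO4, 0.15 mM K2SO4) with ouabain in chloride-free buffer. Fluorescence 488/525 nm for 90 s; IC50 from 10-point curve; DMSO 0.5 or 1%.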

hROMK = hROMK (Homo sapiens (Human), UniProt P48048); test: ROMK Manual Patch Clamp Assay; settings: whole-cell manual patch clamp, hROMK expressing cells; read-out: hROMK EP IC50
Chain of hROMK (P48048 whole entry): as above
Experimental: ROMK Manual Patch Clamp Assay
Cell culture conditions: Cells were maintained in conditions similar to those for Thallium flux assay. hROMK channel expression was induced by adding 0.6 μg/ml of Doxycycline 16-24 hrs prior to the experiments. On the day of experiment, the cells were dissociated using Versene, resuspended in growth media and plated onto coverslips 15 minutes prior to use.
Electrophysiology: The coverslip plated with cells was placed in the experiment chamber perfused with bath solution composed of (in mM): 135 NaCl, 5 KCl, 2 CaCl2, 1 MgCl2, 10 HEPES, 5 Glucose (pH 7.4). Patch pipettes with resistance between 2-5 Megaohms, when filled with a solution containing (in mM): 135 KCl, 1 EGTA, 1 MgCl2, 10 HEPES, 2 Na2ATP (pH 7.3), were used to form gigaseals. The cells were voltage clamped at −75 mV in whole-cell configuration using an Axopatch 200b or Multiclamp 700b (Molecular Devices) amplifier controlled by pClamp Software (Molecular Devices). The current was recorded by applying a voltage step to −120 mV every 10 seconds. For each compound, 4-6 concentrations were applied for 3-8 minutes in a successive manner starting with the lowest concentration. At the end of the experiment, the cells were perfused with bath solution containing 2 mM Ba^2+ to isolate the contribution of hROMK current.
Data analysis: Raw current values (5 traces each for control, different compound concentration and Ba^2+ treatment groups) were exported from Clampfit into Microsoft Excel where the current remaining after application of Ba^2+ was subtracted from raw current to obtain hROMK specific current. These hROMK current values (average of 5 traces for each group) were then imported into a custom made template to generate a concentration response curve, which was subsequently fitted with a four parameter equation to calculate the IC50 value of the test compound.
The data in Table 4 is reported with two significant figures.

SMILES	inhibition at 1 µM (hERG)	IC50 (hROMK (human Kir1.1))	hERG EP IC50 (% Inhibition at 1 μM) (hERG; 1 μM, HEK 293 cells stably expressing hERG)	IC50 (hROMK)	inhibition at 3 µM (hERG)	inhibition at 10 µM (hERG)
Cc1c(C(O)CN2CCc3nc(-n4ccc5c(C#N)cccc54)ncc3C2)ccc2c1COC2=O (single isomer, unassigned) [Example 1-I, 1-(6-(2-hydroxy-2-(4-methyl-1-oxo-1,3-dihydroisobenzofuran-5-yl)ethyl)-5,6,7,8-tetrahydropyrido[4,3-d]pyrimidin-2-yl)-1H-indole-4-carbonitrile]	78%	54 nM	–	–	–	–
Cc1c(C(O)CN2CCc3nc(-n4cc(C#N)c5ccccc54)ncc3C2)ccc2c1COC2=O (single isomer, unassigned) [Example 8-I, 1-(6-(2-hydroxy-2-(4-methyl-1-oxo-1,3-dihydroisobenzofuran-5-yl)ethyl)-5,6,7,8-tetrahydropyrido[4,3-d]pyrimidin-2-yl)-1H-indole-3-carbonitrile]	98%	28 nM	–	–	–	–
Cc1c(C(O)CN2CCc3nc(-n4ccc5cc(C#N)ccc54)ncc3C2)ccc2c1COC2=O (single isomer, unassigned) [Example 16-I, 1-(6-(2-hydroxy-2-(4-methyl-1-oxo-1,3-dihydroisobenzofuran-5-yl)ethyl)-5,6,7,8-tetrahydropyrido[4,3-d]pyrimidin-2-yl)-1H-indole-5-carbonitrile]	25%	380 nM	–	–	–	–
Cc1c(C(O)CN2CCc3nc(Nc4ccc(C#N)c(F)c4)ncc3C2)ccc2c1COC2=O (single isomer, unassigned) [Example 28-I, 2-fluoro-4-((6-(2-hydroxy-2-(4-methyl-1-oxo-1,3-dihydroisobenzofuran-5-yl)ethyl)-5,6,7,8-tetrahydropyrido [4,3-d]pyrimidin-2-yl)amino)benzonitrile]	91%	120 nM	–	–	–	–
Cc1c(C(O)CN2CCc3cc(Nc4ccc(C#N)c(F)c4)ccc3C2)ccc2c1COC2=O (single isomer, unassigned) [Example 32-I, 2-fluoro-4-((2-(2-hydroxy-2-(4-methyl-1-oxo-1,3-dihydroisobenzofuran-5-yl)ethyl)-1,2,3,4-tetrahydroisoquinolin-6-yl)amino) benzonitrile]	100%	50 nM	–	–	–	–
Cc1c(C(O)CN2CCc3cc(Nc4ccc(C#N)c(F)c4)ccc3C2)ccc2c1COC2=O (single isomer, unassigned) [Example 32-II, 2-fluoro-4-((2-(2-hydroxy-2-(4-methyl-1-oxo-1,3-dihydroisobenzofuran-5-yl)ethyl)-1,2,3,4-tetrahydroisoquinolin-6-yl)amino) benzonitrile]	–	83 nM	97% @1 μM	–	–	–
Cc1c(C(O)CN2CCc3nc(-n4ccc5ncccc54)ncc3C2)ccc2c1COC2=O (single isomer, unassigned) [Example 36-I, 5-(2-(2-(1H-pyrrolo[3,2-b]pyridin-1-yl)-7,8-dihydropyrido[4,3-d]pyrimidin-6(5H)-yl)-1-hydroxyethyl)-4-methyl-isobenzofuran-1(3H)-one]	12%	180 nM	–	–	–	–
Cc1c(C(O)CN2CCc3nc(-n4ncc5ncccc54)ncc3C2)ccc2c1COC2=O (single isomer, unassigned) [Example 41-I, 5-(2-(2-(1H-pyrazolo[4,3-b]pyridin-1-yl)-7,8-dihydropyrido[4,3-d]pyrimidin-6(5H)-yl)-1-hydroxyethyl)-4-methylisobenzofuran-1(3H)-one]	11%	60 nM	–	23 nM	–	–
Cc1c(C(O)CN2CCc3nc(-n4ccc5c(C#N)cncc54)ncc3C2)ccc2c1COC2=O (single isomer, unassigned) [Example 42-I, 1-(6-(2-hydroxy-2-(4-methyl-1-oxo-1,3-dihydroisobenzofuran-5-yl)ethyl)-5,6,7,8-tetrahydropyrido[4,3-d]pyrimidin-2-yl)-1H-pyrrolo[2,3-c]pyridine-4-carbonitrile]	41%	70 nM	–	34 nM	–	–
Cc1c(C(O)CN2CCc3nc(-n4ncc5c(C#N)cncc54)ncc3C2)ccc2c1COC2=O (single isomer, unassigned) [Example 43-I, 1-(6-(2-hydroxy-2-(4-methyl-1-oxo-1,3-dihydroisobenzofuran-5-yl)ethyl)-5,6,7,8-tetrahydropyrido[4,3-d]pyrimidin-2-yl)-1H-pyrazolo[3,4-c]pyridine-4-carbonitrile]	16%	180 nM	–	–	–	–
Cc1c(C(O)CN2CCc3nc(Nc4cccnc4)ncc3C2)ccc2c1COC2=O (single isomer, unassigned) [Example 54-I, 5-(1-hydroxy-2-(2-(pyridin-3-ylamino)-7,8-dihydropyrido[4,3-d]pyrimidin-6(5H)-yl)ethyl)-4-methylisobenzofuran-1(3H)-one]	32%	217 nM	–	–	–	–
Cc1c(C(O)CN2CCc3nc(-n4ccnc4C)ncc3C2)ccc2c1COC2=O (single isomer, unassigned) [Example 59-I, 5-(1-hydroxy-2-(2-(2-methyl-1H-imidazol-1-yl)-7,8-dihydropyrido[4,3-d]pyrimidin-6(5H)-yl)ethyl)-4-methyl isobenzofuran-1(3H)-one]	13%	224 nM	–	–	27%	51%
Cc1c(C(O)CN2CCc3nc(-n4nc(C#N)c5ccccc54)ncc3C2)ccc2c1COC2=O (single isomer, unassigned) [Example 60-I, 1-(6-(2-hydroxy-2-(4-methyl-1-oxo-1,3-dihydroisobenzofuran-5-yl)ethyl)-5,6,7,8-tetrahydropyrido[4,3-d]pyrimidin-2-yl)-1H-indazole-3-carbonitrile]	92%	30 nM	–	–	–	–
Cc1c(C(O)CN2CCc3nc(N4CCc5c(C#N)cccc54)ncc3C2)ccc2c1COC2=O (single isomer, unassigned) [Example 65-I, 1-(6-(2-hydroxy-2-(4-methyl-1-oxo-1,3-dihydroisobenzofuran-5-yl)ethyl)-5,6,7,8-tetrahydropyrido[4,3-d]pyrimidin-2-yl)indoline-4-carbonitrile]	56%	31 nM	–	–	–	–
Cc1c(C(O)CN2CCc3nc(-n4ccnc4)ncc3C2)ccc2c1COC2=O (single isomer, unassigned) [Example 66-I, 5-(2-(2-(1H-imidazol-1-yl)-7,8-dihydro-pyrido[4,3-d]pyrimidin-6(5H)-yl)-1-hydroxyethyl)-4-methylisobenzofuran-1(3H)-one]	6%	362 nM	–	–	14%	30%
Cc1c(CN2Cc3cnc(Nc4ccc(C#N)c(F)c4)nc3CC2CO)ccc2c1COC2=O (stereo not shown) [Example 57-II, 2-fluoro-4-((7-(hydroxymethyl)-6-((4-methyl-1-oxo-1,3-dihydroisobenzo-furan-5-yl)methyl)-5,6,7,8-tetrahydro-pyrido[4,3-d]pyrimidin-2-yl)amino) benzonitrile]	–	679 nM	–	–	–	–

From patent US10851108B2, “Substituted bicyclic heterocyclic compounds” (BRISTOL-MYERS SQUIBB COMPANY, priority 2016, dated 2020)
